Read-outs that look alike come from different tables or passages of the source.

The nature of data set [1]: Replicon Assay (Example B), Alamar Blue cytotoxicity CC50. The data set is classed as cell-based. Conditions: human, lower value of the cell pair. In short, it runs like this:
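Huh-7 cells carrying a luciferase/neo HCV subgenomic replicon (NS3–NS5b) were treated with semilog compound dilutions in triplicate (0.1% DMSO) for 72 h at 37 °C. Viability came from Alamar blue resazurin-to-resorufin fluorescence (535/590 nm) for CC50. EC50 came from Bright-Glo luciferase luminescence as a proxy for HCV RNA.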

A further data set concerns the target full length NS3/4a (Hepatitis C virus genotype 1b (isolate BK) (HCV), UniProt P26663). As to the kind of experiment: NS3 Protease Assay (Example A), FRET-based. The data set is classed as biochemical. In a few lines:
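Initial rates were taken from fluorescence progress curves over 30 min at room temperature, and IC50 was fitted across replicates. In-house full-length NS3/4a cleaved a FRET peptide (5-FAMsp/QXL520) from the NS4A/B site. Medium: 50 mM Tris pH8, 20 mM DTT, 1% CHAPS, 10% glycerol, 5% DMSO.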

In data set [2] the test system is HCV subgenomic replicon in Huh-7 cells. As to the kind of experiment: Replicon Assay (Example B), luciferase readout EC50. Type of data set: cell-based. Conditions: Hepatitis C virus, Huh-7, replicon assay, luciferase readout; upper value of the cell pair; read-out: Assay B EC50. In a few lines: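 Huh-7 cells carrying a luciferase-neo HCV subgenomic replicon (NS3–NS5b) were treated with semilog compound dilutions (0.1% DMSO final), in triplicate, for 72 h at 37° C. EC50 came from Bright-Glo luciferase signal as a proxy for replicon RNA; viability was read by Alamar blue.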
On the technique in general: Replicon systems follow genome replication, usually without infectious particles.

The mark [3] stands for this setting: HCV NS3 protease assay, full length NS3/4a, read-out: Assay A IC50 (μM) average.
The mark [4] stands for this setting: read-out: IC50 against the protease activity of the full length NS3/4a.

Chain of full length NS3/4a (P26663 1027-1657): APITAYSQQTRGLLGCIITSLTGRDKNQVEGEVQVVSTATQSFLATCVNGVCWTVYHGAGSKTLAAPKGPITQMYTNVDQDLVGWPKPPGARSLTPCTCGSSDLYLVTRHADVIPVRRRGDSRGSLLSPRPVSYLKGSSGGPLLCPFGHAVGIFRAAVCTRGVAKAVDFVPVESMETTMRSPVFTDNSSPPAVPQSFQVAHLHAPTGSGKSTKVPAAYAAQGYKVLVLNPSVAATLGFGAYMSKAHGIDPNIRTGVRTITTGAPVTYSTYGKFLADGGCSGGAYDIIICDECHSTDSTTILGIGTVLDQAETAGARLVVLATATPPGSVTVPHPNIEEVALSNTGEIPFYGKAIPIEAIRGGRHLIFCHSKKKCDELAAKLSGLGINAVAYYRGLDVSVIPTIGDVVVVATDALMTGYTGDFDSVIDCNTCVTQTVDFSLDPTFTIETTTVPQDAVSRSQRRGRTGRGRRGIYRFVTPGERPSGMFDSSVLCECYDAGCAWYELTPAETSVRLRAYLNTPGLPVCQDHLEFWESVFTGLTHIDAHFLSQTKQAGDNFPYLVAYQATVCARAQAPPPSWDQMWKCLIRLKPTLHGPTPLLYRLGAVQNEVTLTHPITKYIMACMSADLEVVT

Consider `N[C@@H](c1ccc(Cl)c(C(=O)c2ccccc2)c1F)C1CC1` [Example 11, (R)-(3-benzoyl-4-chloro-2-fluorophenyl)-(cyclopropyl)-methanamine], for which the CC50 at 72 h in data set [1] is > 3000 nM. For the same compound, the IC50 on full length NS3/4a (setting [3]) is 0.13 µM; on full length NS3/4a (setting [4]) it was < 1 µM. In data set [2], the EC50 was > 3000 nM.

Take `CC[C@@H](N[C@@H](C)CC(N)=O)c1ccc(Cl)c(C(=O)c2ccc[n+]([O-])c2)c1F` [Example 116, (S)-3-{(R)-1-[4-Chloro-2-fluoro-3-(1-oxy-pyridine-3-carbonyl)-phenyl]-propylamino}-butyramide]: the CC50 at 72 h in data set [1] is > 3000 nM. The IC50 at full length NS3/4a (setting [3]) is 0.81 µM. In addition, in data set [2], the EC50 is > 3000 nM.

`CC[C@@H](N)c1ccc(Cl)c(C(=O)c2ccccc2)c1F` [Example 4, (1R)-1-(3-benzoyl-4-chloro-2-fluorophenyl)propan-1-amine]: the CC50 at 72 h in data set [1] is > 10000 nM. The values for the IC50 on full length NS3/4a (setting [3]) and at full length NS3/4a (setting [4]) were 0.089 µM and < 1 µM, respectively. Further, in data set [2], the EC50 was > 10000 nM.

`CC[C@@H](N[C@@H](C)CC(N)=O)c1ccc(Cl)c(C(=O)c2ccns2)c1F` [Example 108, (3S)-3-{[(1R)-1-{4-chloro-2-fluoro-3-[(1,2-thiazol-5-yl)carbonyl]phenyl}propyl]-amino}butanamide]: the CC50 at 72 h in data set [1] was > 3000 nM. In addition, at full length NS3/4a (setting [3]), the IC50 is 0.07 µM. Also, the EC50 in data set [2] came to 270 nM.

In the case of `CC[C@@H](N[C@@H](C)CC(N)=O)c1ccc(Cl)c(C(=O)c2cccc(O)c2)c1F` [Example 227, (3S)-3-{[(1R)-1-{4-chloro-2-fluoro-3-[(3-hydroxyphenyl)carbonyl]phenyl}propyl]amino} butanamide], the CC50 at 72 h in data set [1] is > 3000 nM. Besides, the values for the IC50 on full length NS3/4a (setting [3]) and on full length NS3/4a (setting [4]) were 0.15 µM and < 1 µM, respectively. Besides, the EC50 in data set [2] came out at 11 nM.

Regarding `CC[C@@H](N[C@@H](C)CC(N)=O)c1ccc(OC)c(C(=O)c2cccc(C#N)c2)c1F` [Example 276, (3S)-3-{[(1R)-1-{3-[(3-cyanophenyl)carbonyl]-2-fluoro-4-methoxyphenyl}propyl]amino}butanamide], in data set [1], the CC50 at 72 h was > 3000 nM. Further, on full length NS3/4a (setting [3]), the IC50 was determined as 0.11 µM. Further, in data set [2], the EC50 turned out to be 27 nM.

Turning to `CC[C@H](NC(C)(C)CC(N)=O)c1ccc(Cl)c(C(=O)c2ccc(N)nc2)c1F` [Example 251, 3-{[(1S)-1-{3-[(6-aminopyridin-3-yl)carbonyl]-4-chloro-2-fluorophenyl}propyl]amino}-3-methylbutanamide], the CC50 at 72 h in data set [1] was > 1000 nM. Moreover, on full length NS3/4a (setting [3]), the IC50 was determined as 0.3 µM. Further, the EC50 in data set [2] was > 1000 nM.

As to `C[C@@H](CC(N)=O)N[C@H](CC1CC1)c1ccc(Cl)c(C(=O)c2ccc(N)nc2)c1F` [Example 278, (3S)-3-{[(1R)-1-{3-[(6-aminopyridin-3-yl)carbonyl]-4-chloro-2-fluorophenyl}-2-cyclopropylethyl]amino} butanamide], the CC50 at 72 h in data set [1] is > 3000 nM. Moreover, the IC50 on full length NS3/4a (setting [3]) was 0.5 µM. For the same compound, in data set [2], the EC50 worked out at 27 nM.

As for `CC[C@@H](N[C@@H](C)CC(N)=O)c1ccc(Cl)c(C(=O)c2ccncc2)c1F` [Example 106, (3S)-3-{[(1R)-1-{4-chloro-2-fluoro-3-[(pyridin-4-yl)carbonyl]phenyl}-propyl]amino}butanamide], the CC50 at 72 h in data set [1] is > 3000 nM. The IC50 at full length NS3/4a (setting [3]) was 0.11 µM; at full length NS3/4a (setting [4]), < 1 µM. Further, the EC50 in data set [2] was 57 nM.

As to `CC[C@@H](N[C@@H](C)CC(N)=O)c1ccc(OC)c(C(=O)c2ccc(N)nc2)c1F` [Example 252, (3S)-3-{[(1R)-1-{3-[(6-aminopyridin-3-yl)carbonyl]-2-fluoro-4-methoxyphenyl}propyl]amino}butanamide], the CC50 at 72 h in data set [1] is > 1000 nM. Also, the IC50 at full length NS3/4a (setting [3]) worked out at 0.18 µM. For the same compound, in data set [2], the EC50 came out at 130 nM.

As a reminder, the CC50 is the concentration that lowers cell viability or growth by half. Low readings indicate greater toxicity to the cells, high ones lower toxicity to the cells. The EC50 is the midpoint of the concentration-response curve.

For the origin of these results see US9145354B2, “Pharmaceutical compounds” (priority 2011, dated 2015).
